Test results taken from PubChem BioAssay (NCI).
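1) Cells in 96-well plates. 2) Compound, 48 h, 5 concentrations. 3) Linear interpolation between surrounding doses. 4) Unreached endpoint = highest concentration. TGI denotes the concentration required for complete inhibition of growth.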

What was measured:
Test in all cases: DTP human tumour cell line panel, 48 h
786-0 renal = system: 786-0 renal
A498 renal = system: A498 renal
A549 NSCLC = system: A549 NSCLC
ACHN renal = system: ACHN renal
BT-549 breast = system: BT-549 breast
CAKI-1 renal = system: CAKI-1 renal
CCRF-CEM leukemia = system: CCRF-CEM leukemia
COLO 205 colon = system: COLO 205 colon
DU-145 prostate = system: DU-145 prostate
EKVX NSCLC = system: EKVX NSCLC
HCC-2998 colon = system: HCC-2998 colon
HCT-116 colon = system: HCT-116 colon
HCT-15 colon = system: HCT-15 colon
HL-60(TB) leukemia = system: HL-60(TB) leukemia
HOP-62 NSCLC = system: HOP-62 NSCLC
HOP-92 NSCLC = system: HOP-92 NSCLC
HS 578T breast = system: HS 578T breast
HT29 colon = system: HT29 colon
IGROV1 ovarian = system: IGROV1 ovarian
K-562 leukemia = system: K-562 leukemia
KM12 colon = system: KM12 colon
LOX IMVI melanoma = system: LOX IMVI melanoma
M14 melanoma = system: M14 melanoma
MALME-3M melanoma = system: MALME-3M melanoma
MCF7 breast = system: MCF7 breast
MDA-MB-231 breast = system: MDA-MB-231 breast
MDA-MB-435 = system: MDA-MB-435
MDA-N = system: MDA-N
NCI-H226 lung = system: NCI-H226 lung
NCI-H23 lung = system: NCI-H23 lung
NCI-H460 lung = system: NCI-H460 lung
NCI-H522 lung = system: NCI-H522 lung
NCI/ADR-RES ovarian = system: NCI/ADR-RES ovarian
OVCAR-3 ovarian = system: OVCAR-3 ovarian
OVCAR-4 ovarian = system: OVCAR-4 ovarian
OVCAR-5 ovarian = system: OVCAR-5 ovarian
OVCAR-8 ovarian = system: OVCAR-8 ovarian
PC-3 prostate = system: PC-3 prostate
RPMI-8226 leukemia = system: RPMI-8226 leukemia
RXF 393 renal = system: RXF 393 renal
SF-268 CNS = system: SF-268 CNS
SF-295 CNS = system: SF-295 CNS
SF-539 CNS = system: SF-539 CNS
SK-MEL-2 melanoma = system: SK-MEL-2 melanoma
SK-MEL-28 melanoma = system: SK-MEL-28 melanoma
SK-MEL-5 melanoma = system: SK-MEL-5 melanoma
SK-OV-3 ovarian = system: SK-OV-3 ovarian
SN12C renal = system: SN12C renal
SNB-19 CNS = system: SNB-19 CNS
SNB-75 CNS = system: SNB-75 CNS
SR leukemia = system: SR leukemia
SW-620 colon = system: SW-620 colon
T-47D breast = system: T-47D breast
TK-10 renal = system: TK-10 renal
U251 CNS = system: U251 CNS
UACC-257 melanoma = system: UACC-257 melanoma
UACC-62 melanoma = system: UACC-62 melanoma
UO-31 renal = system: UO-31 renal
DLD-1 colon = system: DLD-1 colon
DMS 114 small cell lung = system: DMS 114 small cell lung
DMS 273 small cell lung = system: DMS 273 small cell lung
KM20L2 colon = system: KM20L2 colon
LXFL 529 NSCLC = system: LXFL 529 NSCLC
M19-MEL melanoma = system: M19-MEL melanoma
MOLT-4 leukemia = system: MOLT-4 leukemia
SNB-78 CNS = system: SNB-78 CNS

Compound: O=C1C(Br)=CC2(C=C1Br)CCNC1=C2C(=O)c2ncccc2C1=O
- TGI (786-0 renal): 3.11 µM
- TGI (A498 renal): 2.62 µM
- TGI (A549 NSCLC): 3.32 µM
- TGI (ACHN renal): 1.94 µM
- TGI (BT-549 breast): 2.73 µM
- TGI (CAKI-1 renal): 3.14 µM
- TGI (CCRF-CEM leukemia): 6.82 µM
- TGI (COLO 205 colon): 3.6 µM
- TGI (DU-145 prostate): 3.06 µM
- TGI (EKVX NSCLC): 3.3 µM
- TGI (HCC-2998 colon): 4.23 µM
- TGI (HCT-116 colon): 1.74 µM
- TGI (HCT-15 colon): 2.64 µM
- TGI (HL-60(TB) leukemia): 8.26 µM
- TGI (HOP-62 NSCLC): 1.73 µM
- TGI (HOP-92 NSCLC): 4.38 µM
- TGI (HS 578T breast): 5.34 µM
- TGI (HT29 colon): 4.56 µM
- TGI (IGROV1 ovarian): 2.03 µM
- TGI (K-562 leukemia): 0.516 µM
- TGI (KM12 colon): 3.53 µM
- TGI (LOX IMVI melanoma): 1.53 µM
- TGI (M14 melanoma): 3.01 µM
- TGI (MALME-3M melanoma): 2.4 µM
- TGI (MCF7 breast): 2.78 µM
- TGI (MDA-MB-231 breast): 3.67 µM
- TGI (MDA-MB-435): 0.354 µM
- TGI (MDA-N): 0.353 µM
- TGI (NCI-H226 lung): 3.54 µM
- TGI (NCI-H23 lung): 1.65 µM
- TGI (NCI-H460 lung): 1.46 µM
- TGI (NCI-H522 lung): 1.06 µM
- TGI (NCI/ADR-RES ovarian): 6.17 µM
- TGI (OVCAR-3 ovarian): 4.56 µM
- TGI (OVCAR-4 ovarian): 2.48 µM
- TGI (OVCAR-5 ovarian): 3.09 µM
- TGI (OVCAR-8 ovarian): 4.5 µM
- TGI (PC-3 prostate): 8.59 µM
- TGI (RPMI-8226 leukemia): 2.46 µM
- TGI (RXF 393 renal): 2.65 µM
- TGI (SF-268 CNS): 4.99 µM
- TGI (SF-295 CNS): 2.74 µM
- TGI (SF-539 CNS): 0.841 µM
- TGI (SK-MEL-2 melanoma): 0.38 µM
- TGI (SK-MEL-28 melanoma): 2.17 µM
- TGI (SK-MEL-5 melanoma): 1.62 µM
- TGI (SK-OV-3 ovarian): 5.8 µM
- TGI (SN12C renal): 2.5 µM
- TGI (SNB-19 CNS): 2.77 µM
- TGI (SNB-75 CNS): 2.9 µM
- TGI (SR leukemia): 2.07 µM
- TGI (SW-620 colon): 2.73 µM
- TGI (T-47D breast): 4.48 µM
- TGI (TK-10 renal): 4.73 µM
- TGI (U251 CNS): 5.6 µM
- TGI (UACC-257 melanoma): 1.89 µM
- TGI (UACC-62 melanoma): 1.84 µM
- TGI (UO-31 renal): 2.35 µM

Compound: Nc1nc(SCc2ccccc2Cl)c2[nH]cnc2n1
- TGI (A498 renal): 73.1 µM
- TGI (A549 NSCLC): > 100 µM
- TGI (ACHN renal): > 100 µM
- TGI (CCRF-CEM leukemia): > 100 µM
- TGI (COLO 205 colon): > 100 µM
- TGI (DLD-1 colon): > 100 µM
- TGI (DMS 114 small cell lung): > 100 µM
- TGI (DMS 273 small cell lung): > 100 µM
- TGI (EKVX NSCLC): > 100 µM
- TGI (HCC-2998 colon): > 100 µM
- TGI (HCT-116 colon): > 100 µM
- TGI (HCT-15 colon): > 100 µM
- TGI (HL-60(TB) leukemia): > 100 µM
- TGI (HOP-62 NSCLC): > 100 µM
- TGI (IGROV1 ovarian): > 100 µM
- TGI (K-562 leukemia): > 100 µM
- TGI (KM12 colon): > 100 µM
- TGI (KM20L2 colon): > 100 µM
- TGI (LOX IMVI melanoma): > 100 µM
- TGI (LXFL 529 NSCLC): > 100 µM
- TGI (M14 melanoma): > 100 µM
- TGI (M19-MEL melanoma): > 100 µM
- TGI (MALME-3M melanoma): > 100 µM
- TGI (MOLT-4 leukemia): > 100 µM
- TGI (NCI-H23 lung): > 100 µM
- TGI (NCI-H460 lung): > 100 µM
- TGI (NCI-H522 lung): > 100 µM
- TGI (OVCAR-3 ovarian): > 100 µM
- TGI (OVCAR-5 ovarian): > 100 µM
- TGI (OVCAR-8 ovarian): > 100 µM
- TGI (RPMI-8226 leukemia): > 100 µM
- TGI (RXF 393 renal): > 100 µM
- TGI (SF-268 CNS): > 100 µM
- TGI (SF-295 CNS): > 100 µM
- TGI (SF-539 CNS): > 100 µM
- TGI (SK-MEL-2 melanoma): > 100 µM
- TGI (SK-MEL-28 melanoma): > 100 µM
- TGI (SK-MEL-5 melanoma): > 100 µM
- TGI (SK-OV-3 ovarian): > 100 µM
- TGI (SN12C renal): > 100 µM
- TGI (SNB-19 CNS): > 100 µM
- TGI (SNB-78 CNS): > 100 µM
- TGI (SR leukemia): > 100 µM
- TGI (SW-620 colon): > 100 µM
- TGI (TK-10 renal): 67 µM
- TGI (U251 CNS): > 100 µM
- TGI (UACC-257 melanoma): > 100 µM
- TGI (UACC-62 melanoma): > 100 µM
- TGI (UO-31 renal): > 100 µM
